Measured values published in paper PMC11586995, “Screening and Characterization of Sialic Acid-Binding Variable Lymphocyte Receptors from Hagfish” (BioTech, 2024).
Entries after “also recorded” stand apart in the source; their conditions may differ.

system: ccombodies 2D8, 5G11, 6D2, and 4A1; test: Competitive ELISA of monosaccharide haptens against ccombody binding to BSA-CC-Neu5Ac; design: species or system Eptatretus burgeri; details: hapten 50 to 0.39 mM, all four candidates
Description: ELISA was carried out according to the method of Lazarte et al., with some modifications. Screening for sialic acid-binding ccombodies was carried out by coating 100 μL of a 300 ng/well BSA-CC-Neu5Ac glycoconjugate onto high-binding 96-well ELISA plates (Corning, Glendale, AZ, USA), along with BSA only (without CC) as a negative control. Plates were left standing overnight at 4 °C, after which they were washed three times with 1X TBST (10 mM Tris-HCl, 150 mM NaCl, and 0.5% Tween) to remove unbound antigen. Plates were blocked for 30 min with blocking buffer comprising 5% skimmed milk in 1× TBST at room temperature, then washed once with 1X TBST. Ccombody supernatants from HEK293F cells were then added onto the plates, incubated for 1 h 30 min, followed by washing three times with 1X TBST. Antigen bound ccombodies were detected with mouse anti-VLRB antibody (11G5) in blocking buffer by incubation for 1 h, followed by washing three times to remove unbound 11G5. Finally, bound 11G5 antibodies were detected by incubating for 1 h with HRP-conjugated goat anti-mouse IgG (1:5000 v/v in blocking buffer), then washed four times. Binding was quantified by the addition of 100 μL developing buffer composed of 42 mM 3,3′,5,5′-tetramethylbenzidine and 1% H2O2, then color development for 30 min at room temperature. The reaction was stopped by adding 50 μL of 2 M H2SO4. The absorbance was then read at 450 nm using an xMark (BIO-RAD, Hercules, CA USA) microplate reader. Competitive inhibition was determined through ELISA as presented earlier, with some modifications. Optimal subsaturating dilutions of ccombody-culture supernatants were used based on the preliminary antibody titration data. Competitive inhibitors, two-fold serially diluted (50 to 0.39 mM), were mixed with a constant amount of ccombody supernatant diluted in 5% skimmed milk in 1X TBST, then incubated for 1 h at room temperature. Next, 100 μL of the mixture was subsequently transferred into another 96-well ELISA plate containing a constant amount of antigen (500 ng/well) which was pre-blocked with 5% skimmed milk in 1X TBST. Antigen-bound ccombodies were detected by 11G5 and HRP-conjugated goat anti-mouse IgG. The normalized and background-corrected OD450 values were plotted against the ligand concentration, and the half-maximal inhibitory concentration (IC50) was computed by curve fitting using the Four Parameter Logistic (4PL) Curve Calculator [27]. Values are expressed as the mean of three determinations.

| Structure (SMILES) | Inhibition of ccombody binding by free hapten |
| --- | --- |
| CC(=O)N[C@H]1[C@H]([C@H](O)[C@H](O)CO)OC(O)(C(=O)O)C[C@@H]1O (stereo partly drawn) [Neu5Ac, N-acetylneuraminic acid] | strong inhibition; also recorded: strong inhibitory effects |
| CC(=O)N[C@@H]1[C@@H](O)[C@@H](O)[C@@H](CO)O[C@@H]1O [N-acetylgalactosamine] | No significant inhibition |
| O=C[C@H](O)[C@@H](O)[C@@H](O)[C@H](O)CO [galactose] | No significant inhibition |
| CC(=O)N[C@@H]1[C@@H](O)[C@H](O)[C@@H](CO)O[C@H]1O [N-acetylglucosamine] | No significant inhibition |
| OC[C@H]1OC(O)[C@H](O)[C@@H](O)[C@@H]1O (stereo partly drawn) [glucose] | No significant inhibition |
| OC[C@H]1OC(O)[C@@H](O)[C@@H](O)[C@@H]1O (stereo partly drawn) [mannose] | No significant inhibition |
